For orientation: IC50 means the midpoint of a concentration-inhibition curve.

Among the data in US10550105B2 (Ribon Therapeutics Inc., priority 2018, dated 2020) are IC50 values, retold here.

The experiment concerns the target PARP7 (Homo sapiens (Human), UniProt Q7Z3E1). In words: Enzymatic assay for inhibition of PARP7: TR-FRET displacement of biotinylated Probe A from the TIPARP active site. It is filed as binding. The conditions noted are these: Table A-1. In outline:
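Read-out: 665/615 nm emission ratio (ex 320 nm, 90 μs delay) indexing bound TIPARP–Probe A. Final incubation 30 min, 25° C; compounds in dose response. Curve fit of % inhibition vs concentration; Hill slope floating or fixed at 1 (3-parameter).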
(Time-resolved FRET reads energy transfer from a long-lived donor to a nearby acceptor.)

PARP7, sequence (Q7Z3E1 whole entry): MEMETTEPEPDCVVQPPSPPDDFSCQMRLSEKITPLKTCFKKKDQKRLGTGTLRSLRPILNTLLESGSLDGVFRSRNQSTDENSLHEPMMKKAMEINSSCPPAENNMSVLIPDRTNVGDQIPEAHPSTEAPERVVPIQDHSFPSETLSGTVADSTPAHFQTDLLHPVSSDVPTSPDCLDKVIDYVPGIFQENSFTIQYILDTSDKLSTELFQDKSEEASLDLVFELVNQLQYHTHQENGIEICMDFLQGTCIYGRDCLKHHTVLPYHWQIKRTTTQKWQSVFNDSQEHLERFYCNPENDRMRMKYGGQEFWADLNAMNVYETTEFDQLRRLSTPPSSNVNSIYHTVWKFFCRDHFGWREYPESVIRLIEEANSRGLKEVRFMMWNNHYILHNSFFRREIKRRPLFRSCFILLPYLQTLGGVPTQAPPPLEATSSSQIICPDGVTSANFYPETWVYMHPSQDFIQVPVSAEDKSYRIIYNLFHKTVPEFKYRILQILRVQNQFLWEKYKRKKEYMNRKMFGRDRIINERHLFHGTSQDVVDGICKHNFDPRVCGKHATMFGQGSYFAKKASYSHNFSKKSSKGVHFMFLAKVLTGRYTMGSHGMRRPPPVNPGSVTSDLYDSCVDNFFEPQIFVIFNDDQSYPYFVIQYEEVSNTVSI

Regarding `N#Cc1ccc(N2C[C@H]3C[C@@H]2CN3C(=O)CCOC[C@@H]2CCCN2c2cn[nH]c(=O)c2C(F)(F)F)nc1` [Example 112B, 6-[(1R,4R)-5-(3-(((S)-1-(6-oxo-5-(trifluoromethyl)-1,6-dihydropyridazin-4-yl)pyrrolidin-2-yl)methoxy)propanoyl)-2,5-diaza-bicyclo[2.2.1]heptan-2-yl)nicotinonitrile], the IC50 was ≥ 1 µM.
On to `N#Cc1ccc(N2CCCC(NC(=O)CCOC[C@@H]3CCCN3c3cn[nH]c(=O)c3C(F)(F)F)C2)nc1` (stereo partly drawn) [Example 114, N-[1-(5-cyanopyridin-2-yl)piperidin-3-yl]-3-[[(2S)-1-[6-oxo-5-(trifluoromethyl)-1,6-dihydropyridazin-4-yl]pyrrolidin-2-yl]methoxy]propanamide], for which the IC50 is ≥ 1 µM.
Regarding `N#Cc1ccc(N2CCC(NC(=O)CCOC[C@@H]3CCCN3c3cn[nH]c(=O)c3C(F)(F)F)CC2)nc1` [Example 115, N-[1-(5-cyanopyridin-2-yl)piperidin-4-yl]-3-[[(2S)-1-[6-oxo-5-(trifluoromethyl)-1,6-dihydropyridazin-4-yl]pyrrolidin-2-yl]methoxy]propanamide], the half-maximal inhibitory concentration (IC50) is < 0.1 µM.
In the case of `N#Cc1ccc(NC2CCN(C(=O)CCOC[C@@H]3CCCN3c3cn[nH]c(=O)c3C(F)(F)F)CC2)nc1` [Example 116, 6-[[1-(3-[[(2S)-1-[6-oxo-5-(trifluoromethyl)-1,6-dihydropyridazin-4-yl]pyrrolidin-2-yl]methoxy]propanoyl)piperidin-4-yl]amino]pyridine-3-carbonitrile] it was < 0.1 µM; in that of `N#Cc1ccc(N2CCC(NC(=O)CCOC[C@@H]3CCCN3c3cn[nH]c(=O)c3C(F)(F)F)C2)nc1` (stereo partly drawn) [Example 117, N-[1-(5-cyanopyridin-2-yl)pyrrolidin-3-yl]-3-[[(2S)-1-[6-oxo-5-(trifluoromethyl)-1,6-dihydropyridazin-4-yl]pyrrolidin-2-yl]methoxy]propanamide], 0.1 to 1 µM; in that of `CC(C)(COC[C@@H]1CCCN1c1cn[nH]c(=O)c1C(F)(F)F)CC(=O)N1CCN(c2ccc(C#N)cn2)CC1` [Example 118, 6-[4-(3,3-dimethyl-4-[[(2S)-1-[6-oxo-5-(trifluoromethyl)-1,6-dihydropyridazin-4-yl]pyrrolidin-2-yl]methoxy]butanoyl)piperazin-1-yl]pyridine-3-carbonitrile], < 0.1 µM.
In the case of `N#Cc1ccc(N2CCN(C(=O)C#CCOC[C@@H]3CCCN3c3cn[nH]c(=O)c3C(F)(F)F)CC2)nc1` [Example 119, 6-[4-(4-[[(2S)-1-[6-oxo-5-(trifluoromethyl)-1,6-dihydropyridazin-4-yl]pyrrolidin-2-yl]methoxy]but-2-ynoyl)piperazin-1-yl]pyridine-3-carbonitrile] it was < 0.1 µM; in that of `N#Cc1ccc(N2CCN(C(=O)C3CC(OC[C@@H]4CCN(c5cn[nH]c(=O)c5C(F)(F)F)C4)C3)CC2)nc1` (stereo partly drawn) [Example 121A, 6-(4-((1R,3R)-3-((1-(6-oxo-5-(trifluoromethyl)-1,6-dihydropyridazin-4-yl)pyrrolidin-3-yl)methoxy)cyclobutanecarbonyl)piperazin-1-yl)nicotinonitrile], < 0.1 µM; in that of `N#Cc1ccc(N2CCN(C(=O)[C@H]3C[C@@H](OC[C@H]4CCN(c5cn[nH]c(=O)c5C(F)(F)F)C4)C3)CC2)nc1` [Example 121B, 6-(4-((1S,3S)-3-((1-(6-oxo-5-(trifluoromethyl)-1,6-dihydropyridazin-4-yl)pyrrolidin-3-yl)methoxy)cyclobutanecarbonyl)piperazin-1-yl)nicotinonitrile], < 0.1 µM.
Regarding `CO[C@H]1C[C@@H](COCCC(=O)N2CCN(c3ccc(C#N)cn3)CC2)N(c2cn[nH]c(=O)c2C(F)(F)F)C1` [Example 122, 6-[4-(3-[[(2S,4S)-4-methoxy-1-[6-oxo-5-(trifluoromethyl)-1,6-dihydropyridazin-4-yl]pyrrolidin-2-yl]methoxy]propanoyl)piperazin-1-yl]pyridine-3-carbonitrile], the IC50 is < 0.1 µM.
On to `C[C@H](CC(=O)N1CCN(c2ccc(C#N)cn2)CC1)OC[C@@H]1CCCN1c1cn[nH]c(=O)c1C(F)(F)F` [Example 123A, 6-[4-[(3R)-3-[[(2S)-1-[6-oxo-5-(trifluoromethyl)-1,6-dihydropyridazin-4-yl]pyrrolidin-2-yl]methoxy]butanoyl]piperazin-1-yl]pyridine-3-carbonitrile], for which the IC50 is < 0.1 µM.
As for `C[C@@H](CC(=O)N1CCN(c2ccc(C#N)cn2)CC1)OC[C@@H]1CCCN1c1cn[nH]c(=O)c1C(F)(F)F` [Example 123B, 6-[4-[(3S)-3-[[(2S)-1-[6-oxo-5-(trifluoromethyl)-1,6-dihydropyridazin-4-yl]pyrrolidin-2-yl]methoxy]butanoyl]piperazin-1-yl]pyridine-3-carbonitrile], the IC50 is < 0.1 µM.
In the case of `N#Cc1ccc(N2CCN(C(=O)COCCOCc3cccc4c3CN(c3cn[nH]c(=O)c3C(F)(F)F)C4)CC2)nc1` [Example 124, 6-(4-[2-[2-([2-[6-oxo-5-(trifluoromethyl)-1,6-dihydropyridazin-4-yl]-2,3-dihydro-1H-isoindol-4-yl]methoxy)ethoxy]acetyl]piperazin-1-yl)pyridine-3-carbonitrile] it was < 0.1 µM; in that of `N#Cc1ccc(N2CCN(C(=O)N3CC(OC[C@@H]4CCCN4c4cn[nH]c(=O)c4C(F)(F)F)C3)CC2)nc1` [Example 125, 6-[4-(3-[[(2S)-1-[6-oxo-5-(trifluoromethyl)-1,6-dihydropyridazin-4-yl]pyrrolidin-2-yl]methoxy]azetidine-1-carbonyl)piperazin-1-yl]pyridine-3-carbonitrile], < 0.1 µM.
With `N#Cc1ccc(N2CCN(C(=O)NCCOC[C@@H]3CCCN3c3cn[nH]c(=O)c3C(F)(F)F)CC2)nc1` [Example 126, 4-(5-cyanopyridin-2-yl)-N-(2-[[(2S)-1-[6-oxo-5-(trifluoromethyl)-1,6-dihydropyridazin-4-yl]pyrrolidin-2-yl]methoxy]ethyl)piperazine-1-carboxamide], the IC50 was < 0.1 µM.
As to `N#Cc1ccc(N2CCN(C(=O)CCOC[C@@H]3CCCN3c3cn[nH]c(=O)c3C#N)CC2)nc1` [Example 127, 5-[(2S)-2-([3-[4-(5-cyanopyridin-2-yl)piperazin-1-yl]-3-oxopropoxy]methyl)pyrrolidin-1-yl]-3-oxo-2,3-dihydropyridazine-4-carbonitrile], the concentration for half-maximal inhibition (IC50) was < 0.1 µM.
Turning to `C[C@@H](COC[C@@H]1CCCN1c1cn[nH]c(=O)c1C(F)(F)F)CC(=O)N1CCN(c2ccc(C#N)cn2)CC1` [Example 128A], the IC50 was < 0.1 µM.
The value for `C[C@H](COC[C@@H]1CCCN1c1cn[nH]c(=O)c1C(F)(F)F)CC(=O)N1CCN(c2ccc(C#N)cn2)CC1` [Example 128B] was < 0.1 µM; that for `N#Cc1ccc(N2CCN(C(=O)N3CC[C@@H](OC[C@@H]4CCCN4c4cn[nH]c(=O)c4C(F)(F)F)C3)CC2)nc1` [Example 129A, 6-[4-[(3R)-3-[[(2S)-1-[6-oxo-5-(trifluoromethyl)-1,6-dihydropyridazin-4-yl]pyrrolidin-2-yl]methoxy]pyrrolidine-1-carbonyl]piperazin-1-yl]pyridine-3-carbonitrile] was 0.1 to 1 µM; that for `N#Cc1ccc(N2CCN(C(=O)N3CC[C@H](OC[C@@H]4CCCN4c4cn[nH]c(=O)c4C(F)(F)F)C3)CC2)nc1` [Example 129B, 6-[4-[(3S)-3-[[(2S)-1-[6-oxo-5-(trifluoromethyl)-1,6-dihydropyridazin-4-yl]pyrrolidin-2-yl]methoxy]pyrrolidine-1-carbonyl]piperazin-1-yl]pyridine-3-carbonitrile] was < 0.1 µM.
In the case of `N#Cc1ccc(N2CCN(C(=O)CCOCC3CCCCN3c3cn[nH]c(=O)c3C(F)(F)F)CC2)nc1` (centres unmarked) [Example 130, 6-[4-[3-([1-[6-oxo-5-(trifluoromethyl)-1,6-dihydropyridazin-4-yl]piperidin-2-yl]methoxy)propanoyl]piperazin-1-yl]pyridine-3-carbonitrile] it was 0.1 to 1 µM.
On to `N#Cc1ccc(N2CCN(C(=O)CCOCC3CCCCN3c3cn[nH]c(=O)c3Br)CC2)nc1` (centres unmarked) [Example 131, 6-(4-(3-((1-(5-bromo-6-oxo-1,6-dihydropyridazin-4-yl)piperidin-2-yl)methoxy)propanoyl)piperazin-1-yl)nicotinonitrile], for which the 50% inhibitory concentration (IC50) lay within 0.1 to 1 µM.
On to `N#Cc1ccc(N2CCN(C(=O)CCNC(=O)C[C@@H]3CCCN3c3cn[nH]c(=O)c3C(F)(F)F)CC2)nc1` [Example 132, N-[3-[4-(5-cyanopyridin-2-yl)piperazin-1-yl]-3-oxopropyl]-2-[(2S)-1-[6-oxo-5-(trifluoromethyl)-1,6-dihydropyridazin-4-yl]pyrrolidin-2-yl]acetamide], for which the 50% inhibitory concentration (IC50) lay within 0.1 to 1 µM.
Turning to `N#Cc1ccc(N2CCN(C(=O)CCOC[C@@H]3C[C@H](C(F)(F)F)CN3c3cn[nH]c(=O)c3C(F)(F)F)CC2)nc1` [Example 133, 6-[4-(3-[[(2S,4S)-1-[6-oxo-5-(trifluoromethyl)-1,6-dihydropyridazin-4-yl]-4-(trifluoromethyl)pyrrolidin-2-yl]methoxy]propanoyl)piperazin-1-yl]pyridine-3-carbonitrile], the IC50 was < 0.1 µM.
In the case of `N#Cc1ccc(N2CCN(CCC(=O)NC[C@@H]3CCCN3c3cn[nH]c(=O)c3C(F)(F)F)CC2)nc1` [Example 134, (S)-3-(4-(5-cyanopyridin-2-yl)piperazin-1-yl)-N-((1-(6-oxo-5-(trifluoromethyl)-1,6-dihydropyridazin-4-yl)pyrrolidin-2-yl)methyl)propanamide] it was ≥ 1 µM; in that of `N#Cc1ccc(N2CCN(C(=O)CCNC[C@@H]3CCCN3c3cn[nH]c(=O)c3C(F)(F)F)CC2)nc1` [Example 135, 6-[4-[3-([[(2S)-1-[6-oxo-5-(trifluoromethyl)-1,6-dihydropyridazin-4-yl]pyrrolidin-2-yl]methyl]amino)propanoyl]piperazin-1-yl]pyridine-3-carbonitrile], < 0.1 µM.
